# Test results published in patent US9096829B2, “Human mast cell line and uses thereof” (UNIVERSITY OF SOUTH FLORIDA, priority 2009, dated 2015).
# Experiments:
# Assay type in all cases: cell-based, human
# USF-MC1 cells [1] = assay: Beta-hexosaminidase (histamine) release from USF-MC1 mast cells
# Description: (§1) FIGS. 3A-D show graphs of histamine (beta hexosaminidase) release from USF-MC1 cells compared to LAD2 cells after one hour (FIGS. 3A and 3B, respectively), and after six hours (FIGS. 3D and 3C, respectively). USF-MC1 cells (2×10^6 per well) were coated with biotinylated human myeloma IgE for 18 hours. Cells were then washed and challenged with streptavidin (100 ng/ml), ionomycin (5 μM), ANP (1 μM), ANP+KP2, ANP+Isatin. After 30 minutes, supernatants and cell lysates were developed with […] and optical density (OD) was read at 405 nm. Percent release is expressed as a ratio of supernatant over total (supernatant+lysate). […] In addition, ANP-induced histamine release is attenuated by an NPRA receptor antagonist (isatin).
# In order to activate mast cells via the FceR1 receptor, cells were cultured for 18 hours with biotinylated human myeloma IgE (100 ng/ml)(Sigma). Cells were then challenged with streptavidin (100 ng/ml)(Sigma), ionomycin (5 μM), or atrial natriuretic peptide (ANP) (100 ng/ml). After 30 minutes, supernatants and cell pellets were harvested. Substrate solution (p-Nitrophenyl-N-acetyl-B-D-glucosaminide Calbiochem, 0.13% in sodium citric solution) was added to either the cell supernatants or pellets and incubated for 1.5 hr. 0.4M glycine solution was then added to stop the reaction. The optical density (OD) was read at 405 nm. Percent release was expressed as a ratio of supernatant over total (supernatant+lysate). Percent release of beta-hexosadminidase by SV40 LT-transfected USF-MC1 cells and non-transfected USF-MC1 cells is shown in FIG. 5C.
# USF-MC1 cells (2×10^6 per well) were coated with biotinylated human myeloma IgE for 18 hours. Cells were then washed and challenged with streptavidin (100 ng/ml), ionomycin (5 μM), ANP (1 μM), ANP+KP2, ANP+Isatin. After 30 minutes, supernatants and cell lysates were developed with […] and optical density (OD) was read at 405 nm. Percent release is expressed as a ratio of supernatant over total (supernatant+lysate). […]
# USF-MC1 cells [2] = assay: Leukotriene C4 release (ELISA) from USF-MC1 mast cells; details: ANP challenge plus isatin
# Description: (§2) TNF-a (R&G Systems), IL-17 (eBioscience), and Leukotrine C4 (Cayman Chemical) protein concentrations in mast cell supernatants were determined using ELISA kits from each respective manufacturer. Each ELISA was performed according to the manufacturer's instructions.
# LAD2 cells [3] = assay: Leukotriene C4 release (ELISA) from LAD2 mast cells; details: ANP challenge plus isatin
# Description: as §2
# LAD2 cells [4] = assay: Beta-hexosaminidase (histamine) release from LAD2 mast cells; details: ANP challenge plus isatin
# Description: as §1
# In order to activate mast cells via the FceR1 receptor, cells were cultured for 18 hours with biotinylated human myeloma IgE (100 ng/ml)(Sigma). Cells were then challenged with streptavidin (100 ng/ml)(Sigma), ionomycin (5 μM), or atrial natriuretic peptide (ANP) (100 ng/ml). After 30 minutes, supernatants and cell pellets were harvested. […] The optical density (OD) was read at 405 nm. Percent release was expressed as a ratio of supernatant over total (supernatant+lysate). […]
Compound,"histamine (beta hexosaminidase) release after challenge (USF-MC1 cells [1]; ionomycin 5 μM or ANP 1 μM, 30 minutes)",effect on ANP-induced release of LTC4 (USF-MC1 cells [2]),effect on ANP-induced release of LTC4 (LAD2 cells [3]),"effect on ANP-induced histamine release (USF-MC1 cells [1]; ANP 1 μM + isatin, 30 minutes)",effect on ANP-induced release of B-Hex (USF-MC1 cells [1]; ANP challenge plus isatin),effect on ANP-induced release of B-Hex (LAD2 cells [4])
C[C@H](CCC(=O)O)C[C@H](C)C[C@H](C)C(=O)/C=C(\O)[C@H](C)C[C@H](C)C/C=C/[C@@H](C)[C@@H](O)[C@@H](C)[C@@H](O)C[C@@H]1CC[C@@](C)([C@H]2CC[C@@](C)([C@@H](C)O)O2)O1 [ionomycin],releases histamine within minutes,–,–,–,–,–
O=C1Nc2ccccc2C1=O [isatin],–,reduced to baseline,reduced to baseline,attenuated,reduced to baseline,reduced to baseline
